Among the data in ChEMBL document CHEMBL1126847, “Deoxygenated inositol 1,4,5-trisphosphate analogues and their interaction with metabolic enzymes. (1R,2R,4R)-cyclohexane-1,2,4-tris(methylenesulfonate): a potent selective 5-phosphatase inhibitor” (J Med Chem, 1993) are Ki and EC50 values, retold here.

In general, Ki refers to a dissociation constant, usually derived from enzyme kinetics or from competition with a known ligand. Low values mean a stronger hold on the target, high ones a looser hold on the target. As a reminder, the EC50 is the concentration giving half of the maximal effect. Read a low EC50 as greater potency.

Each structure is given as a SMILES string. Bounds are passed on as bounds.

A short description of experiment [1]: Tested for the ability to displace [3H]1,4,5-IP3 from the 1,4,5-IP3 specific binding site of membranes from the bovine adrenal cortices.
Experiment [2] deals with T1, Inositol polyphosphate-5-phosphatase A (Homo sapiens, UniProt Q14642).
T1 sequence (Q14642 whole entry): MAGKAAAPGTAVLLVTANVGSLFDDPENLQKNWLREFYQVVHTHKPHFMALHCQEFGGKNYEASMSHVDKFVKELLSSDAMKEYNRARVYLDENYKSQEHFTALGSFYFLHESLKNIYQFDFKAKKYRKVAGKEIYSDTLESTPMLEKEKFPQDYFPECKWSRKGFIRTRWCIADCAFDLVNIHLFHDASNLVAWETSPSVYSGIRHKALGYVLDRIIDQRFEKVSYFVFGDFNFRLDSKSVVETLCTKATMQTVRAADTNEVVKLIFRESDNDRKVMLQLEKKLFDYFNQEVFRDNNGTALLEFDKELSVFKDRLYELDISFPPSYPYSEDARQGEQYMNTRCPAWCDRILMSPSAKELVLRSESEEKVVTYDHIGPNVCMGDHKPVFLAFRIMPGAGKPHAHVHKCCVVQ
The experiment is described as follows: Tested for inhibition of 5-phosphatase isolated from human erythrocyte membrane (R metabolically resistant).

Experiment [3] is described as follows: Tested for [Ca2+] release in 45 [Ca2+] -preloaded SH-SY5Y cells using saponin. It counts as functional, cell-based. The conditions noted are these: Homo sapiens.
Experiment [4] is described as follows: (§1) Inhibition of Inositol 1,4,5-trisphosphate 3-kinase from rat brain homogenate (R metabolically resistant). It counts as tissue-based.
A short description of experiment [5]: Inhibition of Inositol 1,4,5-trisphosphate 3-kinase from rat brain homogenate (S substrate).
Experiment [6] concerns the target T1, Inositol polyphosphate-5-phosphatase A. The experiment is described as follows: Tested for inhibition of 5-phosphatase isolated from human erythrocyte membrane (S substrate).
A short description of experiment [7]: Inhibition of Inositol 1,4,5-trisphosphate 3-kinase from rat brain homogenate (r metabolically resistant).
Experiment [8] is described as follows: as §1.
The target of experiment [9] is T1, Inositol polyphosphate-5-phosphatase A. The experiment is described as follows: Tested for inhibition of 5-phosphatase isolated from human erythrocyte membrane.
Experiment [10] can be described thus: Inhibition of Inositol 1,4,5-trisphosphate 3-kinase from rat brain homogenate (r-metabolically resistant).

For `O=P(O)(O)OCC1CCC(COP(=O)(O)O)[C@H](COP(=O)(O)O)C1` (stereo partly specified), the Ki was above 100 µM in [1], 144 µM in experiment [2] and above 600 µM in [4]. In addition, the EC50 in experiment [3] was above 100 µM.
As for `O=P(O)(O)CC1CCC(CP(=O)(O)O)[C@H](CP(=O)(O)O)C1` (stereo partly specified), the Ki in experiment [1] is above 100 µM; in experiment [2] it was 535 µM; in experiment [4], above 600 µM. The same compound returned an EC50 in [3] above 100 µM.
As for `O=P(O)(O)O[C@@H]1[C@H](O)[C@H](O)[C@@H](OP(=O)(O)O)[C@H](OP(=O)(O)O)[C@H]1O` [INS(1,4,5)P3], the values for the Ki in [5], in experiment [6] and in experiment [1] were 0.85 µM, 15 µM and 0.0022 µM, respectively. In addition, the EC50 in experiment [3] was 0.0521 µM.
Regarding `O=P(O)(O)OC1[C@H](O)CC(OP(=O)(O)O)[C@H](OP(=O)(O)O)[C@@H]1O` (stereo partly specified), the Ki in experiment [6] was 11.5 µM; in experiment [1], 0.0234 µM; in experiment [7], 25 µM. The compound further yielded an EC50 in experiment [3] of 0.156 µM.
`O=S(=O)(O)CC1CC[C@H](CS(=O)(=O)O)C[C@H]1CS(=O)(=O)O` (stereo partly specified): the Ki was above 600 µM in experiment [8], above 100 µM in [1] and above 1000 µM in experiment [2]. The compound also gave a half-maximal effective concentration (EC50) in [3] above 100 µM.
Consider `O=P(O)(O)OC1CCC(OP(=O)(O)O)[C@H](OP(=O)(O)O)[C@@H]1O` (stereo partly specified), for which the Ki in [6] worked out at 16.5 µM; in [1], 0.0396 µM; in experiment [7] it was 19 µM. In [3], this compound came in with an EC50 of 0.186 µM.
Take `O=P(O)(O)Cc1ccc(CP(=O)(O)O)c(CP(=O)(O)O)c1`: the Ki was above 100 µM in experiment [1], 148 µM in experiment [2] and above 200 µM in experiment [4]. In addition, the EC50 in experiment [3] is above 100 µM.
Take `O=S(=O)(O)CC1CC[C@@H](CS(=O)(=O)O)C[C@H]1CS(=O)(=O)O` (stereo partly specified): the inhibitory constant (Ki) in experiment [1] was above 100 µM; in experiment [9] it was 3.9 µM; in experiment [4] it was above 600 µM. Besides, the EC50 in experiment [3] was above 100 µM.
Regarding `O=P(O)(O)OC1CCC(OP(=O)(O)O)[C@H](OP(=O)(O)O)C1` (stereo partly specified), the figures for the Ki in experiment [6], in [10] and in experiment [1] were 81.4 µM, 36 µM and 3.95 µM, respectively. The compound further registered an EC50 in experiment [3] above 10 µM.
